# pEC50: −log10 of the molar value.
# Tests used:
# [1] = molecular target: hNurr1_RXRαFL (NURR1/RXRα heterodimer) (Homo sapiens, UniProt P19793+P43354); test: Transactivation assay in Cos-7 cells, NURR-1-Gal4 / RXRα, luciferase reporter; type: cell-based; conditions: for Emax: COS-7, read-out: hNurr1_RXRαFL Eff (%), efficacy in % relative to the reference XCT0135908 at 2·10^−5 M (=100%); for pEC50: Cos-7 cells, overnight incubation
# Outline: (§1)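 Cos-7 cells co-transfected with human NURR-1-Gal4 chimera, human RXRα or RXRγ, and 5Gal4pGL3-TK-Luc reporter; compounds added at 10^−4 to 3·10^−10 M final, overnight incubation, luciferase read. Induction over each heterodimer's baseline expressed as % of reference RXR agonist XCT0135908 (2·10^−5 M) taken as 100%.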
# [2] = molecular target: hNurr1_RXRγFL (NURR1/RXRγ heterodimer) (Homo sapiens, UniProt P43354+P48443); test: Transactivation assay in Cos-7 cells, NURR-1-Gal4 / RXRγ, luciferase reporter; type: cell-based; conditions: for Emax: COS-7, read-out: hNurr1_RXRγFL Eff (%), efficacy in % relative to the reference XCT0135908 at 2·10^−5 M (=100%); for pEC50: Cos-7 cells, overnight incubation
# Sequence of hNurr1_RXRγFL (NURR1/RXRγ heterodimer) (P43354 328-598): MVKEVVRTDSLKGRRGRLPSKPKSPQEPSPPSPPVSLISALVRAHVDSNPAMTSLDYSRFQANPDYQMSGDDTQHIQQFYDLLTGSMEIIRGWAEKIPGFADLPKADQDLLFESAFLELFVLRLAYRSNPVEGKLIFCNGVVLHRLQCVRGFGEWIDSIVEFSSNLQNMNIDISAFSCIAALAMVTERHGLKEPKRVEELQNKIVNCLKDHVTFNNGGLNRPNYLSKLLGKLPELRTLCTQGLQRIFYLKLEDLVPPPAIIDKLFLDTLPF
# Sequence of hNurr1_RXRγFL (NURR1/RXRγ heterodimer) (P48443 whole entry, the tested form may be a part): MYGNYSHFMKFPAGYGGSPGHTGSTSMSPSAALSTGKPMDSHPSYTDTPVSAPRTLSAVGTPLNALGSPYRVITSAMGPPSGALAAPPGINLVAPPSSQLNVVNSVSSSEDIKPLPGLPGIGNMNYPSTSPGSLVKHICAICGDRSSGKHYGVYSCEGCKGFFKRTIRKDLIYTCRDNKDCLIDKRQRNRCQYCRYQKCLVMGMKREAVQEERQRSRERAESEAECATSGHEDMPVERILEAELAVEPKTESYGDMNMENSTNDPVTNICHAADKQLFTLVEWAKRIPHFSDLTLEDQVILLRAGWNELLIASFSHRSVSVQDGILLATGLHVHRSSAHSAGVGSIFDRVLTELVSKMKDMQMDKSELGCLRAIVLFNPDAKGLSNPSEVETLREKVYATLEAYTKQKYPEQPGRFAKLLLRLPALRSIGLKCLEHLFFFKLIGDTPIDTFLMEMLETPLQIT
# Outline: as §1
# Sequence of hNurr1_RXRαFL (NURR1/RXRα heterodimer) (P19793 whole entry, the tested form may be a part): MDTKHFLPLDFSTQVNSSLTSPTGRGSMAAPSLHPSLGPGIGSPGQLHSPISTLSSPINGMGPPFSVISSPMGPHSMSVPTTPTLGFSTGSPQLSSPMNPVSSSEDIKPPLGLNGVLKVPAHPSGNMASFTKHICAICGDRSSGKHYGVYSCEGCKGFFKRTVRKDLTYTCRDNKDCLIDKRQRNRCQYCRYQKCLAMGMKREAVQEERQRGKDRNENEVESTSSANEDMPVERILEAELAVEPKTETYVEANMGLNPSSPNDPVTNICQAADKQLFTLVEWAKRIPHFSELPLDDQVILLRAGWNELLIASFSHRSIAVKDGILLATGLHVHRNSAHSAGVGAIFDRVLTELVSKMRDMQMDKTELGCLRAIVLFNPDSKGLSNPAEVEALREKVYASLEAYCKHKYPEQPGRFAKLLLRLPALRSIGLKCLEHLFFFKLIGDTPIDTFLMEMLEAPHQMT
# Sequence of hNurr1_RXRαFL (NURR1/RXRα heterodimer) (P43354 328-598): as the sequence (P43354 328-598) above
Compound,Emax [1],pEC50 [1],Emax [2],pEC50 [2]
"CC(C)(C)c1cccc(S(=O)(=O)n2c(Cc3ccc(C(=O)O)cc3)cc3c(Cl)c(Cl)ccc32)c1 [Example 119, 4-[[1-[[3-(1,1-dimethylethyl)phenyl]sulfonyl]-4-(chloro)-5-(chloro)-1H-indol-2-yl]methyl]benzoic acid]",71%,7.19,82%,6.58
"O=C(O)c1ccc(Cc2cc3cc(Cl)ccc3n2S(=O)(=O)c2ccc(-c3ccc(F)cc3)cc2)cc1 [Example 179, 4-[[1-[4′-fluoro-biphenyl-4-sulfonyl]-5-(chloro)-1H-indol-2-yl]methyl]benzoic acid]",62%,6.48,26%,< 5.00
"COC(=O)c1ccc(Cc2cc3ccccc3n2S(=O)(=O)c2cccc(C(C)(C)C)c2)cc1 [Example 194, 4-[[1-[[3-(1,1-dimethylethyl)phenyl]sulfonyl]-1H-indol-2-yl]methyl]-benzoic acid, methyl ester]",42%,6.46,36%,6.50
"CC1(C)CCc2cc(S(=O)(=O)n3c(Cc4ccc(C(=O)O)cc4)cc4cc(C(F)(F)F)ccc43)ccc2O1 [Example 132, 4-[[1-[(3,4-dihydro-2,2-dimethyl-2H-1-benzopyran-6-yl)sulfonyl]-5-(trifluoromethyl)-1H-indol-2-yl]methyl]benzoic acid]",45%,6.66,28%,6.45
"O=C(O)c1ccc(Cc2cc3cc(C(F)(F)F)ccc3n2S(=O)(=O)c2cccc(OC(F)(F)F)c2)cc1 [Example 145, 4-[[1-[3-trifluoromethoxy-phenylsulfonyl]-5-(trifluoromethyl)-1H-indol-2-yl]methyl]benzoic acid]",44%,6.44,21%,6.20
"O=C(O)c1ccc(Cc2cc3cc(C(F)(F)F)ccc3n2S(=O)(=O)c2ccc(N3CCOCC3)nc2)cc1 [Example 135, 4-[[1-[[6-(4-morpholinyl)-3-pyridinyl]sulfonyl]-5-(trifluoromethyl)-1H-indol-2-yl]methyl]benzoic acid]",31%,6.19,19%,6.04
"CC(C)(C)c1cccc(S(=O)(=O)n2c(Cc3ccc(C(=O)O)o3)cc3cc(C(F)(F)F)ccc32)c1 [Example 69, 5-[[1-[[3-(1,1-dimethylethyl)-phenyl]sulfonyl]-5-trifluoromethyl-1H-indol-2-yl]methyl]-furan-2-carboxylic acid]",79%,8.05,72%,7.82
"CC(C)c1ccc(S(=O)(=O)n2c(Cc3ccc(C(=O)O)c(Cl)c3)cc3cc(C(F)(F)F)ccc32)cc1 [Example 209, 4-[[1-[[4-(1-methylethyl)-phenyl]sulfonyl]-5-trifluoromethyl-1H-indol-2-yl]methyl]-2-chlorobenzoic acid]",69%,6.48,51%,6.13
"O=C(O)c1ccc(Cc2cc3cc(Cl)ccc3n2S(=O)(=O)c2ccc(F)cc2)cc1 [Example 167, 4-[[1-[4-fluoro-phenylsulfonyl]-5-(chloro)-1H-indol-2-yl]methyl]benzoic acid]",48%,5.94,40%,5.61
Cc1ccc(S(=O)(=O)n2c(Cc3ccc(C(=O)O)cc3)cc3cc(C(F)(F)F)ccc32)cc1 [Example 134],50%,6.67,36%,6.26
"O=C(O)c1ccc(Cc2cc3cc(C(F)(F)F)ccc3n2S(=O)(=O)c2ccc(-c3ccccc3)s2)cc1 [Example 14, 4-[[1-[(5-phenyl-2-thienyl)sulfonyl]-5-(trifluoromethyl)-1H-indol-2-yl]methyl]benzoic acid]",69%,6.40,30%,6.11
"CC(C)(CO)c1cccc(S(=O)(=O)n2c(Cc3ccc(C(=O)O)cc3)cc3cc(C(F)(F)F)ccc32)c1 [Example 231, 4-[[1-[[3-(2-hydroxy-1,1-dimethylethyl)phenyl]sulfonyl]-5-(trifluoromethyl)-1H-indol-2-yl]methyl]benzoic acid]",81%,7.19,62%,6.79
"COc1ccc(S(=O)(=O)n2c(Cc3ccc(C(=O)O)cc3)cc3cc(Cl)ccc32)cc1 [Example 165, 4-[[1-[4-methoxy-phenylsulfonyl]-5-(chloro)-1H-indol-2-yl]methyl]benzoic acid]",51%,5.94,37%,5.53
"O=C(O)c1ccc(Cc2cc3cc(C(F)(F)F)ccc3n2S(=O)(=O)c2cccc(SC(F)F)c2)cc1 [Example 126, 4-[[1-[3-difluoromethylsulfanyl-phenylsulfonyl]-5-(trifluoromethyl)-1H-indol-2-yl]methyl]benzoic acid]",44%,6.91,32%,6.85
"CC(C)(C)c1cccc(S(=O)(=O)n2c(Cc3ccc(C(=O)O)c(Cl)c3)cc3cc(C(F)(F)F)ccc32)c1 [Example 206, 4-[[1-[[3-(1,1-dimethylethyl)-phenyl]sulfonyl]-5-trifluoromethyl-1H-indol-2-yl]methyl]-2-chlorobenzoic acid]",71%,6.76,85%,6.44
"O=C(O)c1ccc(Cc2cc3cc(C(F)(F)F)ccc3n2S(=O)(=O)c2cccc(Cl)c2)cc1 [Example 143, 4-[[1-[3-chloro-phenylsulfonyl]-5-(trifluoromethyl)-1H-indol-2-yl]methyl]benzoic acid]",33%,6.47,18%,6.37
"O=C(O)c1ccc(Cc2cc3cc(Cl)ccc3n2S(=O)(=O)c2ccc(F)c(Cl)c2)cc1 [Example 150, 4-[[1-[3-chloro-4-fluoro-phenylsulfonyl]-5-(chloro)-1H-indol-2-yl]methyl]benzoic acid]",103%,6.52,96%,6.30
"CC(C)(C)c1cccc(S(=O)(=O)n2c(Cc3ccc(C(=O)O)cc3)cc3ccccc32)c1 [Example 195, 4-[[1-[[3-(1,1-dimethylethyl)phenyl]sulfonyl]-1H-indol-2-yl]methyl]-benzoic acid]",57%,6.20,56%,5.93
"Cc1ccc(S(=O)(=O)n2c(Cc3ccc(C(=O)O)cc3)cc3cc(Cl)ccc32)cc1 [Example 171, 4-[[5-chloro-1-[(4-methylphenyl)sulfonyl]-1H-indol-2-yl]methyl]benzoic acid]",40%,6.29,31%,6.03
"O=C(O)c1ccc(Cc2cc3cc(Cl)ccc3n2S(=O)(=O)c2ccc(Cl)cc2)cc1 [Example 160, 4-[[1-[4-chloro-phenylsulfonyl]-5-(chloro)-1H-indol-2-yl]methyl]benzoic acid]",59%,6.34,55%,5.86
"CC(C)(C)c1cccc(S(=O)(=O)n2c(C(F)c3ccc(C(=O)O)cc3)cc3cc(C(F)(F)F)ccc32)c1 (stereo not drawn) [Example 217, 4-[[1-[[3-(1,1-dimethylethyl)phenyl]sulfonyl]-5-(trifluoromethyl)-1H-indol-2-yl]fluoromethyl]benzoic acid]",83%,6.83,80%,6.45
